Measurements published in patent publication US11339160B2, “Imidazole and triazole containing bicyclic compounds as JAK inhibitors” (THERAVANCE BIOPHARMA R&D IP, LLC, priority 2019, dated 2022).

Key:
JAK3 = JAK3 (Homo sapiens (Human), UniProt P52333); experiment: Biochemical JAK3 kinase assay (LanthaScreen); settings: selectivity, difference of pKi values
Description: Assay 1: Biochemical JAK and Tyk2 Kinase Assays
A panel of four LanthaScreen JAK biochemical assays (JAK1, 2, 3 and Tyk2) were carried in a common kinase reaction buffer (50 mM HEPES, pH 7.5, 0.01% Brij-35, 10 mM MgCl2, and 1 mM EGTA). Recombinant GST-tagged JAK enzymes and a GFP-tagged STAT1 peptide substrate were obtained from Life Technologies.
Serially or discretely diluted compounds were pre-incubated with each of the four JAK enzymes and the substrate in white 384-well microplates (Corning) at ambient temperature for 1 h. ATP was subsequently added to initiate the kinase reactions in 10 μL total volume, with 1% DMSO. […] Kinase reactions were allowed to proceed for 1 hour at ambient temperature before a 10 μL preparation of EDTA (10 mM final concentration) and Tb-anti-pSTAT1 (pTyr701) antibody (Life Technologies, 2 nM final concentration) in TR-FRET dilution buffer (Life Technologies) was added. The plates were allowed to incubate at ambient temperature for 1 h before being read on the EnVision reader (Perkin Elmer). Emission ratio signals (520 nm/495 nm) were recorded and utilized to calculate the percent inhibition values based on DMSO and background controls.
For dose-response analysis, percent inhibition data were plotted vs. compound concentrations, and IC50 values were determined from a 4-parameter robust fit model with the Prism software (GraphPad Software). Results were expressed as pIC50 (negative logarithm of IC50) and subsequently converted to pKi (negative logarithm of dissociation constant, Ki) using the Cheng-Prusoff equation.

[1] = test system: IL-2 stimulated STAT5 phosphorylation in CD4+ T cells isolated from murine splenocytes; experiment: Inhibition of IL-2 stimulated pSTAT5 in CD4+ T cells isolated from murine splenocytes; assay type: cell-based; settings: Mus musculus, IL-2 7 ng/ml, read-out: pIC50, inhibition of IL-2 stimulated pSTAT5 (converted)
Description: Assay 3: Inhibition of IL-2 Stimulated pSTAT5 in CD4+ T Cells Isolated from Murine Splenocytes
The potency of test compounds for inhibition of interleukin-2 (IL-2) stimulated STAT5 phosphorylation was measured in the CD4+ T cells isolated from murine splenocytes using AlphaLisa. Because IL-2 signals through JAK3, this assay provides a measure of JAK3 cellular potency in mouse.
Phosphorylated STAT5 was measured via the AlphaLISA SureFire Ultra pSTAT5 (Tyr694/699) kit (PerkinElmer).
CD4+ T cells were isolated from murine splenocytes via negative selection on a magnetic column (Miltnyi Biotec) and re-suspended in assay media (phenol red-free DMEM (Life Technologies) supplemented with 10% FBS (ATCC)). Cells were seeded at 50,000 cells/well in assay media (2 μL/well). Compounds were serially diluted in DMSO and diluted to 2× final concentration in assay media. Compound was added (4 μl/well) and the cells incubated at 37° C., 5% CO2 for 1 hour, followed by the addition of IL-2 (R&D Systems; final concentration 7 ng/ml) in pre-warmed assay media (2 μL) for 30 minutes. After cytokine stimulation, cells were lysed with 2 μl of 5× AlphaLisa Lysis Buffer (PerkinElmer). The lysate was shaken at 900 rpm for 10 minutes at room temperature (RT). Phosphorylated STAT5 was measured via the pSTAT5 AlphaLisa kit (PerkinElmer). Freshly prepared acceptor bead mixture was dispensed onto lysate (5 ul) under green filtered <100 lux light. Plates were shaken at 900 rpm for 2 mins, briefly spun down, and incubated for 2 hrs at RT in the dark. Donor beads were dispensed (5 μl) under green filtered <100 lux light. Plates were shaken at 900 rpm for 2 mins, briefly spun down, and incubated overnight at RT in the dark. Luminescence was measured with excitation at 689 nm and emission at 570 nm using an EnVision plate reader (PerkinElmer) under green filtered <100 lux light.
To determine the inhibitory potency of test compounds in response to IL-2, the average emission intensity of beads bound to pSTAT5 was measured in primary CD4+ T cells isolated from murine splenocytes. IC50 values were determined from analysis of the inhibition curves of signal intensity vs compound concentration. Data are expressed as pIC50 (negative decadic logarithm IC50) values (mean standard deviation).

Chain of JAK3 (P52333 whole entry): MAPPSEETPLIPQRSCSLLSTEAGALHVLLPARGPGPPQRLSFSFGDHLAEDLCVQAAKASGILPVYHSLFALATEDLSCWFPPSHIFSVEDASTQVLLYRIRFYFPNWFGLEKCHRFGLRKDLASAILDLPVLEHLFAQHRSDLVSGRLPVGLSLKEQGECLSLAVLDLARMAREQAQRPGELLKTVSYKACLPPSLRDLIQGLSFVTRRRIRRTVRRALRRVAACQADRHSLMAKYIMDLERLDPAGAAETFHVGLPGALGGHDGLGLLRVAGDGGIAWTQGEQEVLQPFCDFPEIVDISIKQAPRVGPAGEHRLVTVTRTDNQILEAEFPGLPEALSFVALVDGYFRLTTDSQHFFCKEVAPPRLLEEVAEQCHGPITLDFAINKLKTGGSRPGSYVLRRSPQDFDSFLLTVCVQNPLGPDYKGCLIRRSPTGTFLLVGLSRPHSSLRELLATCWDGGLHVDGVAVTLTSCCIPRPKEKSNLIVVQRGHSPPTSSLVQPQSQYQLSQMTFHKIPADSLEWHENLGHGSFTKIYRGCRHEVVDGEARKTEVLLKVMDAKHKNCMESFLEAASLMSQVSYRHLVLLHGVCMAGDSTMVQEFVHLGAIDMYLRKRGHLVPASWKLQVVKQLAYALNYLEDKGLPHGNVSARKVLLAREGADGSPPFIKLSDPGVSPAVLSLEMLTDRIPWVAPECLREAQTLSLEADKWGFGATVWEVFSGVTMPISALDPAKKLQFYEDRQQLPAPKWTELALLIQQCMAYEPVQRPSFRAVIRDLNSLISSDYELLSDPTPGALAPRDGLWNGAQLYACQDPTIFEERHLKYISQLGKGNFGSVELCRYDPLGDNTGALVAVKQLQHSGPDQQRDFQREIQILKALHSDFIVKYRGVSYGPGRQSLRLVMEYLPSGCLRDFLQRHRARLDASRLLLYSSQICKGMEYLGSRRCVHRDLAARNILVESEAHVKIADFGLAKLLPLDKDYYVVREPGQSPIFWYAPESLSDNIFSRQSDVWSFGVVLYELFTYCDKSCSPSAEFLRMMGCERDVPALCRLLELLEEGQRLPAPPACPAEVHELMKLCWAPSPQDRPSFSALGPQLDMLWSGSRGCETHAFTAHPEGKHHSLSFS

Compound	JAK3 (pKi)-JAK1 (pKi) (JAK3)	IC50 [1] [µM]
C=CC(=O)N1CC(COc2cc(-c3ccc(O)c(C)c3)cn3cncc23)C1 [Example 34]	A (a value of 3 or above)	< 1
C=CC(=O)N1CC(COc2cc(-c3cc(F)c(O)cc3CC)cn3cncc23)C1 [Example 13, 1-(3-(((6-(2-ethyl-5-fluoro-4-hydroxyphenyl)imidazo[1,5-a]pyridin-8-yl)oxy)methyl)azetidin-1-yl)prop-2-en-1-one]	A (a value of 3 or above)	< 1
C=CC(=O)N1CCC(Oc2cc(-c3cc(F)c(O)cc3CC)cn3cncc23)CC1 [Example 47]	B (a value of 2.3 to 3)	–
CN(C)C/C=C/C(=O)N1CC(COc2cc(-c3ccc(O)c(Cl)c3)cn3cncc23)C1 [Example 23]	A (a value of 3 or above)	–
C=CC(=O)N1CC(COc2cc(-c3cc(C)c(O)c(C)c3)cn3cncc23)C1 [Example 35]	A (a value of 3 or above)	–
C=CC(=O)N1CCC(Nc2cc(-c3ccc(O)cc3)cn3cncc23)CC1 [Example 4, 1-(4-((6-(4-hydroxyphenyl)imidazo[1,5-a]pyridin-8-yl)amino)piperidin-1-yl)prop-2-en-1-one]	B (a value of 2.3 to 3)	–
C=CC(=O)N1CCC(Oc2cc(-c3ccc(O)cc3)cn3cncc23)C(F)(F)C1 (stereo not drawn) [Example 14, 1-(3,3-difluoro-4-((6-(4-hydroxyphenyl)imidazo[1,5-a]pyridin-8-yl)oxy)piperidin-1-yl)prop-2-en-1-one]	A (a value of 3 or above)	–
C=CC(=O)N1CCC[C@H](Oc2cc(-c3cc(F)c(O)cc3CC)cn3cncc23)C1 [Example 16]	B (a value of 2.3 to 3)	–
C=CC(=O)N1CC(COc2cc(-c3cc(C)c(O)cc3C)cn3cncc23)C1 [Example 43]	A (a value of 3 or above)	–
C=CC(=O)N1CC(COc2cc(-c3ccc(O)cc3C(F)(F)F)cn3cncc23)C1 [Example 42]	A (a value of 3 or above)	–
C=CC(=O)N1[C@H](C)C[C@H](Oc2cc(-c3ccc(O)cc3)cn3cncc23)C[C@@H]1C [Example 40]	B (a value of 2.3 to 3)	–
C=CC(=O)N1CC(CNc2cc(-c3ccc(O)cc3)cn3cncc23)C1 [Example 52]	B (a value of 2.3 to 3)	–
C=CC(=O)N1[C@@H]2CC[C@H]1C[C@H](Oc1cc(-c3cc(F)c(O)cc3CC)cn3cncc13)C2 [Example 48]	A (a value of 3 or above)	–
C=CC(=O)N1CC2(CCC2Oc2cc(-c3cc(F)c(O)cc3CC)cn3cncc23)C1 (stereo not drawn) [Example 46]	B (a value of 2.3 to 3)	–
C=CC(=O)N1CC(COc2cc(-c3ccc(O)cc3CC)cn3cncc23)C1 [Example 21]	A (a value of 3 or above)	–
C=CC(=O)N1CC(COc2nc(-c3ccc(O)cc3)cn3cncc23)C1 [Example 6, 1-(3-(((6-(4-hydroxyphenyl)imidazo[1,5-a]pyrazin-8-yl)oxy)methyl)azetidin-1-yl)prop-2-en-1-one]	A (a value of 3 or above)	–
C=CC(=O)N1CC(COc2cc(-c3cc(Cl)c(O)c(Cl)c3)cn3cncc23)C1 [Example 33]	A (a value of 3 or above)	–
C=CC(=O)N1CC(COc2cc(-c3ccc(O)cc3C)cn3cncc23)C1 [Example 44]	A (a value of 3 or above)	–
C=CC(=O)N1CC[C@@H](Oc2cc(-c3ccc(O)cc3)cn3cncc23)[C@@H](C)C1 [Example 41]	A (a value of 3 or above)	–
C=CC(=O)N1CC(COc2cc(-c3cc(F)c(O)c(F)c3)cn3cncc23)C1 [Example 32]	A (a value of 3 or above)	–

Compound	JAK3 (pKi)-JAK1 (pKi) (JAK3)	IC50 [1] [µM]
C=CC(=O)N1CCC[C@H](Oc2cc(-c3ccc(O)cc3)cn3cncc23)C1 [Example 27]	A (a value of 3 or above)	–
CN(C)C/C=C/C(=O)N1CC(COc2cc(-c3ccc(O)cc3)cn3cncc23)C1 [Example 19]	A (a value of 3 or above)	–
C=CC(=O)N1CC(COc2cc(-c3ccc(O)cc3)cn3cnnc23)C1 [Example 5, 1-(3-(((6-(4-hydroxyphenyl)-[1,2,4]triazolo[4,3-a]pyridin-8-yl)oxy)methyl)azetidin-1-yl)prop-2-en-1-one]	A (a value of 3 or above)	–
C=CC(=O)N1CCC(Oc2cc(-c3cc(F)c(O)cc3CC)cn3cncc23)C(F)(F)C1 (stereo not drawn) [Example 49]	C (a value of 1.8 to 2.3)	–
C=CC(=O)N1CC2(CCC2Oc2cc(-c3ccc(O)cc3)cn3cncc23)C1 (stereo not drawn) [Example 3, 1-(5-((6-(4-hydroxyphenyl)imidazo[1,5-a]pyridin-8-yl)oxy)-2-azaspiro[3.3]heptan-2-yl)prop-2-en-1-one]	A (a value of 3 or above)	–
C=CC(=O)N1CC[C@H](Oc2cc(-c3ccc(O)cc3)cn3cncc23)C1 [Example 1, (S)-1-(3-((6-(4-hydroxyphenyl)imidazo[1,5-a]pyridin-8-yl)oxy)pyrrolidin-1-yl)prop-2-en-1-one]	A (a value of 3 or above)	–
C=CC(=O)N1CC(COc2cc(-c3ccc(O)cc3OC)cn3cncc23)C1 [Example 45]	A (a value of 3 or above)	–
C=CC(=O)N1CC[C@H](Oc2cc(-c3ccc(O)cc3)cn3cncc23)C[C@@H]1C [Example 38]	A (a value of 3 or above)	–
C=CC(=O)N1CCC(Oc2cc(-c3ccc(O)cc3)cn3cncc23)CC1 [Example 30]	A (a value of 3 or above)	–
C=CC(=O)N1CC[C@@H](Oc2cc(-c3ccc(O)cc3)cn3cncc23)C[C@@H]1C [Example 39]	A (a value of 3 or above)	–
C=CC(=O)N1CC[C@H](COc2cc(-c3ccc(O)cc3)cn3cncc23)C1 [Example 26]	A (a value of 3 or above)	–
CN(C)C/C=C/C(=O)N1CC(COc2cc(-c3ccc(O)c(F)c3)cn3cncc23)C1 [Example 22]	A (a value of 3 or above)	–
C=CC(=O)N1[C@@H]2CC[C@H]1C[C@H](Nc1cc(-c3ccc(O)cc3)cn3cncc13)C2 [Example 50]	B (a value of 2.3 to 3)	–
CCc1cc(O)ccc1-c1cc(OCC2CN(C(=O)/C=C/CN(C)C)C2)c2cncn2c1 [Example 25]	A (a value of 3 or above)	–
C=CC(=O)N1CCC[C@H](Nc2cc(-c3ccc(O)cc3)cn3cncc23)C1 [Example 51]	B (a value of 2.3 to 3)	–
C=CC(=O)N1[C@@H]2CC[C@H]1C[C@@H](Oc1cc(-c3ccc(O)cc3)cn3cncc13)C2 [Example 36]	A (a value of 3 or above)	–
CCc1cc(O)c(F)cc1-c1cc(O[C@H]2CCCN(C(=O)/C=C/CN(C)C)C2)c2cncn2c1 [Example 18]	B (a value of 2.3 to 3)	–
C=CC(=O)N1CCC(COc2cc(-c3ccc(O)cc3)cn3cncc23)CC1 [Example 2, 1-(4-(((6-(4-hydroxyphenyl)imidazo[1,5-a]pyridin-8-yl)oxy)methyl)piperidin-1-yl)prop-2-en-1-one]	A (a value of 3 or above)	–
C=CC(=O)N1CC2(CC(Oc3cc(-c4ccc(O)cc4)cn4cncc34)C2)C1 [Example 37]	A (a value of 3 or above)	–
C=CC(=O)N1CC(CSc2cc(-c3ccc(O)cc3)cn3cncc23)C1 [Example 29]	A (a value of 3 or above)	–
